Results published in patent US6605730B2, “Intermediates for nematicidal pyrazoles” (priority 1998, dated 2003).

Columns and labels:
Meloidogyne incognita [1] = assay: Meloidogyne test (Test Example 5, infected soil, lettuce); assay type: in vivo; conditions: active compound concentration 5 ppm; lettuce root galls
Procedure: (§1) Test nematode: Meloidogyne incognita
Solvent: 4 parts by weight of acetone
(§2) Emulsifier: 1 part by weight of alkylaryl polyglycol ether
(§3) To produce a suitable preparation of active compound, 1 part by weight of active compound is mixed with the stated amount of solvent and the stated amount of emulsifier is added and the concentrate is diluted with water to the desired concentration.
(§4) The active compound preparation is intimately mixed with soil which is heavily infected with the test nematodes. The treated soil is transferred into pots, lettuce seeds are sown and the pots are kept in the greenhouse.
(§5) After the desired time the lettuce roots are checked for infestation with nematodes (root galls) and the efficacy of the active compound in % is determined. The efficacy is 100% when infestation is avoided completely and 0% when infestation level is just as high as in the control plants in untreated but equally infested soil.

Meloidogyne incognita [2] = assay: Meloidogyne test (Test Example 6, infected soil, lettuce); assay type: in vivo; conditions: active compound concentration 20 ppm, lettuce root galls
Procedure: as §1
Solvent: 31 parts by weight of acetone
as §2, §3, §4, §5

[3] = test system: southern root-knot nematodes; assay: Test on root-knot nematodes (soil pot test, tomato); assay type: in vivo; conditions: active ingredient 50 ppm in infested soil; tomato plants; after 4 weeks
Procedure: Fine granular formulations were prepared by impregnating 99 parts of pumice with 1 part each of active compounds.
Each of the active compounds prepared in the above-described manner was added to soil infested with southern root-knot nematodes so as to give an active ingredient concentration of 50 ppm, and intimately blended therein. This soil was charged into pots having an area of 1/5000 are, and about 20 tomato seeds (of the Kurihara variety) were sown in each pot. Tomato plants were grown in a greenhouse and, after 4 weeks, extracted so as not to injure their roots. Then, the root knot index and the controlling effect for each active compound were determined in the following manner.
0: No knot was formed (perfectly controlled).
1: Knots were formed to a slight degree.
2: Knots were formed to a moderate degree.
3: Knots were formed to a heavy degree.
4: Knots were formed to the heaviest degree (corresponding to no treatment). [formula]
According to the value of the controlling effect, the effectiveness was rated on the following basis.
a: The controlling effect was in the range of 100 to 71%.
b: The controlling effect was in the range of 70 to 50%.
c: The controlling effect was less than 50%.
d: The controlling effect was 0%.

[4] = test system: Nippostrongylus brasiliensis adult worms; assay: Test on Nippostrongylus brasiliensis, Lane, adult (acetylcholine esterase activity of incubation medium); assay type: in vivo; conditions: 100 μg/ml
Procedure: The method was carried out, in accordance with a method described in Parasitol. Res., vol. 73 (1987) 191, Rapson, E. B. et al. N.brasiliensis adult worms are isolated from the small intestine of female Wister rats and in sodium chloride solution ([…]) supplemented with Canesten (2 mg/l) and Sisomycin (20 mg/l). Worms (five male and five female) were incubated, according to the method of Rapson et al, and the incubation medium was adjusted so as to give final concentrations of 100 μg/ml. The resulting incubation medium was for acetylcholine esterase activity, as performed by Rapso et al. using a scale 0-3 where 0=no activity (<50% enzyme inhibition) and 1, 2 and 3 weak, good and full activity (50-75, >75 and 100% enzyme inhibition, respectively).

[5] = test system: Trichinella spiralis larvae; assay: Test on Trichinella spiralis, Owen, larvae; assay type: in vivo; conditions: 100 μg/ml; incubated at 19° C. for five days
Procedure: The method was carried out, in accordance with a method described in Tropenmed. Parasitol., vol. 32 (1981), 31-34, Jenkins, D. C., and Carrington, T. S. T. spiralis larvae were isolated from skeletal muscles and diaphragms of SPF/CFW1 mice and stored in sodium chloride solution ([…]) supplemented with Canested (20 μg/ml). The larvae (20 per estimation) were incubated in 2 ml of a solution with the following composition: Casitone 20; yeast extract 10; glucose 5; potassium dihydrogen phosphate 0.8; dipotassium hydrogen phosphate 0.8 g/l in water (500 ml; pH 7.2) and supplemented with Sisomycin (10 mg/l) and Canesten (1 mg/l).
The test compound (10 mg) was dissolved in dimethylsulfoxide (0.5 ml) and added to the incubation medium containing the larvae to give final concentrations of 100 μg/ml. The mixture was incubated at 19° C. for five days, after which activity was assessed according to Jenkins and Carrington a scale 1-3 where 1=weak activity (fewer live larvae than in the untreated control); 2=good activity (>=50% more dead larvae than in the untreated control) and 3=full activity (all larvae dead).

Compound `CC(C)(C)c1ccc(-c2cc(-c3cccs3)[nH]n2)cc1` has a melting point of 61 to 65 °C.
`CCCc1c(-c2ccc(Cl)cc2)n[nH]c1-c1cccs1` showed a melting point of 129 to 132 °C.
With `C=C(C)C(=O)n1nc(-c2ccc(Cl)cc2)cc1-c1cccs1` the “kill (%)” value (Meloidogyne incognita [1]) was 100%.
With `Fc1cccc(F)c1-c1cc(-c2cccs2)[nH]n1` the “kill in % after 14 d” value (Meloidogyne incognita [2]) was 100%.
For “1-acetyl-3-(4-chlorophenyl)-5-(2-thienyl)-1H-pyrazole and 1-acetyl-3-(2-thienyl)-5-(4-chlorophenyl)-1H-pyrazole [Compound 58]”, the “Evaluation (controlling effect from root knot index)” value [3] was “a (The controlling effect was in the range of 100 to 71%.)”.
For `Fc1ccc(-c2cc(-c3cccs3)[nH]n2)cc1` [Compound 6, 3-(4-fluorophenyl)-5-(2-thienyl)-1H-pyrazole], the “Evalution (acetylcholine esterase inhibition, scale 0-3)” value [4] was 3 (1, 2 and 3 weak, good and full activity (50-75, >75 and 100% enzyme inhibition, respectively)), the “Evaluation (controlling effect from root knot index)” value [3] was “a (The controlling effect was in the range of 100 to 71%.)” and the “Evolution (activity, scale 1-3)” value [5] was 2 (2=good activity (>=50% more dead larvae than in the untreated control)).
For `Clc1ccc(-c2cc(-c3cccs3)[nH]n2)cc1` [Compound 7, 3-(4-chlorophenyl)-5-(2-thienyl)-1H-pyrazole], the melting point was 217 °C and the “Evaluation (controlling effect from root knot index)” value [3] was “a (The controlling effect was in the range of 100 to 71%.)”.
For `Ic1ccc(-c2cc(-c3cccs3)[nH]n2)cc1` [Compound 9], the “Evalution (acetylcholine esterase inhibition, scale 0-3)” value [4] was 3 (1, 2 and 3 weak, good and full activity (50-75, >75 and 100% enzyme inhibition, respectively)) and the “Evaluation (controlling effect from root knot index)” value [3] was “a (The controlling effect was in the range of 100 to 71%.)”.
With `CCc1ccc(-c2cc(-c3cccs3)[nH]n2)cc1` [Compound 11] the “Evaluation (controlling effect from root knot index)” value [3] was “a (The controlling effect was in the range of 100 to 71%.)”.
In the case of `FC(F)(F)Oc1ccc(-c2cc(-c3cccs3)[nH]n2)cc1` [Compound 26], the “Evaluation (controlling effect from root knot index)” value [3] is reported as “a (The controlling effect was in the range of 100 to 71%.)”.
With `CCc1c(-c2ccc(Cl)cc2)n[nH]c1-c1cccs1` [Compound 46] the “Evalution (acetylcholine esterase inhibition, scale 0-3)” value [4] was 3 (1, 2 and 3 weak, good and full activity (50-75, >75 and 100% enzyme inhibition, respectively)) and the “Evolution (activity, scale 1-3)” value [5] was 2 (2=good activity (>=50% more dead larvae than in the untreated control)).
For `CSCc1c(-c2ccc(Cl)cc2)n[nH]c1-c1cccs1` [Compound 49, 3-(4-Chlorophenyl)-4-methylmercaptomethyl-5-(2-thienyl)-1H-pyrazole], the “Evalution (acetylcholine esterase inhibition, scale 0-3)” value [4] was 3 (1, 2 and 3 weak, good and full activity (50-75, >75 and 100% enzyme inhibition, respectively)) and the “Evolution (activity, scale 1-3)” value [5] was 2 (2=good activity (>=50% more dead larvae than in the untreated control)).
With `c1ccc(-c2cc(-c3cccs3)n[nH]2)cc1` [compound 1, 3-(2-Thienyl)-5-phenyl-1H-pyrazole, reference compound] the “Evaluation (controlling effect from root knot index)” value [3] was “c (The controlling effect was less than 50%.)”.
In the case of `COc1ccc(-c2cc(-c3cccs3)n[nH]2)cc1` [compound 2, 3-(2-Thienyl)-5-(4-methoxyphenyl)-1H-pyrazole, reference compound], the “Evaluation (controlling effect from root knot index)” value [3] is reported as “d (The controlling effect was 0%.)”.
